Read-outs that look alike come from different tables or passages of the source.

In data set [1] the test system is human breast cancer cells having steroid hormone receptor. Put plainly: Antitumor test (in vivo), implanted human breast cancer, drug in olive oil. More on the design: species or system human (implanted in BALB/C-nu/nu mice). To be noted: oral administration. From the text:
(§1) Pieces of human breast cancer cells having steroid hormone receptor were subcutaneously implanted under the arm of mice (BALB/C-nu/nu) (5 week age) to form solid tumors. After the solid tumors were established, each dispersion or solution of the active ingredient in olive oil was administrated by oral dose or intraperitoneal injection each other day for 10 times or every days for 20 times. Twenty five days from the initial administration, the tumors were excised. Efficiency of inhibition of tumor proliferation was measured from (A) each average weight of excised tumors for 10 mice (the active ingredient was administrated) and (B) each average weight of excised tumors for 10 control mice. [formula]

Data set [2] has as its system spleen, uterus and thymus. The experiment in a line: Observation in autopsy. To be noted: autopsy after administration. The data set is classed as in vivo, mice (BALB/C-nu/nu).
From the text: as §1

The next data set in a line: Acute toxicity (LD50). More on the design: species or system mice (ICR-JCL). The settings on record: mouse, in vivo; for LD50: Test 2, route and unit inferred; for LD50 at 168 h: mice. The method, then:
In the measurement of LD50, eight ICR-JCL female mice (5 week age) were used as one group to breed in a transparent polycage, and each drug was dissolved in olive oil and administrated by routes of intraperitoneal injection (i.p.), oral administration (p.o.) and subcutaneous injection (s.c.), to the mice at one dose, and then, their value of LD50 by Litchfield-Wilcoxon graph method is obtained after 7 days. LD50 of Chlorambucil was i.p. 20 mg./kg., p.o. 80 mg./kg., and s.c. 26 mg./kg., LD50 of the sample No. 2 in Table 1 of the present invention was i.p. greater than 3000 mg./kg., p.o. greater than 6000 mg./kg. and s.c. greater than 3000 mg./kg.. […]

The test system of data set [3] is human breast cancer cells having steroid hormone receptor. The experiment in a line: Antitumor test (in vivo), implanted human breast cancer, drug in olive oil. More on the design: species or system human (implanted in BALB/C-nu/nu mice).
Data set [4] shares this test system. The experiment in a line: Test 2: antitumor effect, dispersion in Polysolvate 80, intraperitoneal injection. To be noted: Polysolvate 80 dispersion. The data set is classed as in vivo, human (implanted in BALB/C-nu/nu mice).
From the text: as §1
In accordance with the test I, except administrating each active ingredient in a form of dispersion dispersed in Polysolvate 80 (emulsifier) by an intraperitoneal injection in the test of antitumor effect.

A further data set deals with estrogen receptor. The experiment in a line: Test 3: binding function to estrogen sensitive cells (displacement of 3H-estradiol from uterus of rabbit). The method, then: Binding function of 3-hydroxy-1,3,5(10)-estratriene-17β-[4-{p-[bis(2-chloroethyl)amino]phenyl}butyryloxy]acetate to estrogen sensitive cells.
Estradiol labelled by tritium (^3 H) was incubated with uterus of rabbit to bind it and then, the sample was added to the system to measure the amount of free ^3 H-estradiol which was replaced by the […].

The mark [5] stands for this setting: ip, single dose in olive oil, i.p., 7 days, read-out: LD50.
The mark [6] stands for this setting: po, oral administration, Table 1, read-out: LD50 (Oral administration).
Setting [7] is: po, single dose in olive oil, p.o., 7 days, read-out: LD50.
[8] abbreviates: sc, single dose in olive oil, s.c., 7 days, read-out: LD50.
Setting [9] is: sc, subcutaneous administration, Table 1, read-out: LD50 (Subcutaneous administration).
Where [10] appears, read: subcutaneous administration, 5 mg/kg.
[11] abbreviates: subcutaneous administration, 10 mg/kg.

With `O=C(O)CCCc1ccc(N(CCCl)CCCl)cc1` [Sample No. 1, 4-{p-[bis(2-chloroethyl)amino]phenyl}butyric acid, reference compound], the Efficiency of inhibition is 55% in data set [1] (10 mg/kg); 70% in data set [1] (15 mg/kg); 53% in data set [3] (setting [10]); 71% in data set [3] (setting [11]); 50 to 70% in data set [3] (subcutaneous and oral administration, 15 mg./kg. (text, about)). Further, the Survived ratio in data set [1] (10 mg/kg) was 8/10; in data set [1] (15 mg/kg), 7/10; in data set [3] (setting [10]) it was 9/10; in data set [3] (setting [11]) it was 7/10. The “changes of spleen, uterus and thymus in autopsy” value in data set [2] was “serious changes of spleen, uterus and thymus were found”. Moreover, the LD50 in “Acute toxicity (LD50)” (ip) was found to be 20 mg/kg. Also, the LD50 at 168 h was 20 mg/kg in “Acute toxicity (LD50)” (setting [5]); 80 mg/kg in the data set “Acute toxicity (LD50)” (setting [6]); 80 mg/kg in the data set “Acute toxicity (LD50)” (setting [7]); 26 mg/kg in “Acute toxicity (LD50)” (setting [8]); 26 mg/kg in “Acute toxicity (LD50)” (setting [9]). In data set [4] (5 mg./kg.), the “Inhibitory effect (%)” value is recorded as 30%.

As to `C[C@]12CC[C@@H]3c4ccc(OC(=O)c5ccccc5)cc4CC[C@H]3[C@@H]1CC[C@@H]2OC(=O)COC(=O)CCCc1ccc(N(CCCl)CCCl)cc1` [Sample No. 2, 3-benzoyloxy-1,3,5(10)-estratriene-17β-[4-{p-[bis(2-chloroethyl)amino]phenyl}butyryloxy]acetate], the Efficiency of inhibition in data set [1] (10 mg/kg) is recorded as 92%; in data set [1] (15 mg/kg), 98%; in data set [3] (setting [10]) it was 90%; in data set [3] (setting [11]), 98%. For the same compound, the Survived ratio in data set [1] (10 mg/kg), in data set [1] (15 mg/kg), in data set [3] (setting [10]) and in data set [3] (setting [11]) was 10/10 each time. The LD50 at 168 h in “Acute toxicity (LD50)” (setting [5]) is over 3000 mg/kg; in the data set “Acute toxicity (LD50)” (setting [6]) it was over 6000 mg/kg; in “Acute toxicity (LD50)” (setting [7]), over 6000 mg/kg; in the data set “Acute toxicity (LD50)” (setting [8]) it was over 3000 mg/kg; in “Acute toxicity (LD50)” (setting [9]) it was over 2000 mg/kg.

For the compound `C[C@]12CC[C@@H]3c4ccc(O)cc4CC[C@H]3[C@@H]1CC[C@@H]2OC(=O)COC(=O)CCCc1ccc(N(CCCl)CCCl)cc1` [3-hydroxy-1,3,5(10)-estratriene-17β-[4-{p-[bis(2-chloroethyl)amino]phenyl}butyryloxy]acetate], the “binding function to estrogen receptor” value with estrogen receptor is on record as “has the binding function to estrogen receptor”. In addition, the “free 3H-estradiol (displacement)” value in the data set on estrogen receptor (compared with estradiol) is “free ^3 H-estradiol was increased as the same with estradiol itself”. This compound also had an LD50 in the data set “Acute toxicity (LD50)” (ip) of over 1000 mg/kg. The “Inhibitory effect (%)” value amounted to 91% in data set [4] (0.5 mg./kg.) and 97% in data set [4] (5 mg./kg.).

For `CCC(=O)Oc1ccc2c(c1)CC[C@@H]1[C@@H]2CC[C@]2(C)[C@@H](OC(=O)COC(=O)CCCc3ccc(N(CCCl)CCCl)cc3)CC[C@@H]12` [Sample No. 4, 3-propionyloxy-1,3,5(10)-estratriene-17β-[4-{p-[bis(2-chloroethyl)amino]phenyl}butyryloxy]acetate], the Efficiency of inhibition in data set [1] (10 mg/kg) worked out at 93%; in data set [1] (15 mg/kg), 97%; in data set [3] (setting [10]) it was 92%; in data set [3] (setting [11]), 94%. The Survived ratio in data set [1] (10 mg/kg), in data set [1] (15 mg/kg), in data set [3] (setting [10]) and in data set [3] (setting [11]) was 10/10 in each case. In addition, the LD50 at 168 h was over 3000 mg/kg in “Acute toxicity (LD50)” (setting [6]) and over 2000 mg/kg in the data set “Acute toxicity (LD50)” (setting [9]).

For `CC(=O)Oc1ccc2c(c1)CC[C@@H]1[C@@H]2CC[C@]2(C)[C@@H](OC(=O)COC(=O)CCCc3ccc(N(CCCl)CCCl)cc3)CC[C@@H]12` [Sample No. 3, 3-acetoxy-1,3,5(10)-estratriene-17β-[4-{p-[bis(2-chloroethyl)amino]phenyl}butyryloxy]acetate], the Efficiency of inhibition was found to be 91% in data set [1] (10 mg/kg), 93% in data set [1] (15 mg/kg), 93% in data set [3] (setting [10]) and 95% in data set [3] (setting [11]). Moreover, the Survived ratio in data set [1] (10 mg/kg), in data set [1] (15 mg/kg), in data set [3] (setting [10]) and in data set [3] (setting [11]) was 10/10 throughout. Further, the LD50 at 168 h in “Acute toxicity (LD50)” (setting [6]) was over 3000 mg/kg; in “Acute toxicity (LD50)” (setting [9]), over 2000 mg/kg.

The record behind these values is patent US4261910A, “Process for the preparation of Chlorambucil derivatives” (Kureha Kagaku Kogyo Kabushiki Kaisha, priority 1978, dated 1981).
